Results reported in patent publication US10294202B2, “Pyrrolidinones as herbicides” (FMC Corporation, priority 2013, dated 2019).

Assays:
ryegrass, Italian = assay: Test A pre-/postemergence herbicide test; format: in vivo, Lolium multiflorum; conditions: for Plant response rating, Ryegrass, Italian: 0 to 100 scale
Outline: (§1)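 Formulated compound (non-phytotoxic solvent, surfactant) sprayed pre- onto soil of seeded loam/sand pots or post- onto seedlings at 1–2 leaves; ~10 d greenhouse; 0–100 visual control rating versus untreated.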

galium = assay: Test A postemergence herbicide test; format: in vivo, Galium aparine; conditions: for Plant response rating, Galium: 125 g ai/ha, 0 to 100 scale, 0 no effect, 100 complete control; for Galium plant response rating (0 to 100 scale, 0 is no effect, 100 is complete control): 500 g ai/ha
Outline: (§2)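 Blackgrass and galium grown in pots of loam soil–sand blend, treated postemergence at 2–10 cm height, one- to two-leaf stage. Plants kept in greenhouse ~10 days, then visually rated for injury against untreated controls on a 0–100 scale (0 no effect, 100 complete control).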

corn = assay: Test A pre-/postemergence herbicide test; format: in vivo, Zea mays; conditions: Postemergence
Outline: as §1

giant foxtail = assay: Test A pre-/postemergence herbicide test; format: in vivo, Setaria faberii; conditions: for Plant response rating, Foxtail, Giant: 0 to 100 scale
Outline: as §1

barnyardgrass [1] = assay: Test A pre-/postemergence herbicide test; format: in vivo, Echinochloa crus-galli
Outline: as §1

rice = assay: Test B flooded paddy test; format: in vivo, Oryza sativa; conditions: 500 g ai/ha, Flood; scale of 0 to 100 where 0 is no effect and 100 is complete control
Outline: (§3)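 Scored visually 0–100 (0 no effect, 100 complete control) versus controls after 13 to 15 greenhouse days. Treatment: compound added to paddy water kept 3 cm above soil, on 2-leaf-stage plants.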

kochia = assay: Test A pre-/postemergence herbicide test; format: in vivo, Kochia scoparia; conditions: for Plant response rating, Kochia: 0 to 100 scale
Outline: as §1

ducksalad = assay: Test B flooded paddy test; format: in vivo, Heteranthera limosa; conditions: 500 g ai/ha, Flood; scale of 0 to 100 where 0 is no effect and 100 is complete control
Outline: as §3

sedge, umbrella = assay: Test B flooded paddy test; format: in vivo, Cyperus difformis; conditions: 500 g ai/ha, Flood; scale of 0 to 100 where 0 is no effect and 100 is complete control
Outline: as §3

wheat = assay: Test A pre-/postemergence herbicide test; format: in vivo, Triticum aestivum; conditions: Postemergence; for Plant response rating, Wheat: 125 g ai/ha, 0 to 100 scale, 0 no effect, 100 complete control; for Wheat plant response rating (0 to 100 scale, 0 is no effect, 100 is complete control): 500 g ai/ha
Outline: as §1

blackgrass = assay: Test A postemergence herbicide test; format: in vivo, Alopecurus myosuroides
Outline: as §2

barnyardgrass [2] = assay: Test B flooded paddy test; format: in vivo, Echinochloa crus-galli; conditions: 500 g ai/ha, Flood; scale of 0 to 100 where 0 is no effect and 100 is complete control
Outline: as §3

pigweed = assay: Test A pre-/postemergence herbicide test; format: in vivo, Amaranthus retroflexus; conditions: for Plant response rating, Pigweed: 0 to 100 scale
Outline: as §1

ragweed = assay: Test A pre-/postemergence herbicide test; format: in vivo, Ambrosia elatior; conditions: for Plant response rating, Ragweed: 0 to 100 scale
Outline: as §1

[3] = 125 g ai/ha, visual rating, 0 no effect, 100 complete control, approximately 10 days, preemergence
[4] = Postemergence, 125 g ai/ha, 0 no effect, 100 complete control
[5] = 125 g ai/ha, 0 to 100 scale, 0 no effect, 100 complete control
[6] = 500 g ai/ha, 0 to 100 scale (0 no effect, 100 complete control)
[7] = 125 g ai/ha, visual rating, 0 to 100 scale, 0 no effect, 100 complete control, approximately 10 days, preemergence
[8] = Postemergence, 125 g ai/ha, 0 to 100 scale, 0 no effect, 100 complete control
[9] = Postemergence, 500 g ai/ha, 0 to 100 scale (0 no effect, 100 complete control)
[10] = preemergence, 500 g ai/ha, 0 to 100 scale (0 no effect, 100 complete control)

Compound | Plant response rating, Ryegrass, Italian (ryegrass, Italian; [3]) | Plant response rating, Ryegrass, Italian (ryegrass, Italian; [4]) | Ryegrass, Italian plant response rating (0 to 100 scale, 0 is no effect, 100 is complete control) (ryegrass, Italian; Postemergence, 500 g ai/ha) | Plant response rating, Ryegrass, Italian (ryegrass, Italian; preemergence, 500 g ai/ha) | Plant response rating, Galium (galium) | Galium plant response rating (0 to 100 scale, 0 is no effect, 100 is complete control) (galium) | Plant response rating, Corn (corn; [5]) | Plant response rating, Foxtail, Giant (giant foxtail; [3]) | Plant response rating, Foxtail, Giant (giant foxtail; [4]) | Foxtail, Giant plant response rating (0 to 100 scale, 0 is no effect, 100 is complete control) (giant foxtail; Postemergence, 500 g ai/ha) | Plant response rating, Foxtail, Giant (giant foxtail; preemergence, 500 g ai/ha) | Plant response rating, Barnyardgrass (barnyardgrass [1]; [7]) | Plant response rating, Barnyardgrass (barnyardgrass [1]; [8]) | Plant response rating, Barnyardgrass (barnyardgrass [1]; [10]) | Plant response rating, Rice (rice) | Plant response rating, Kochia (kochia; [3]) | Plant response rating, Kochia (kochia; [4]) | Kochia plant response rating (0 to 100 scale, 0 is no effect, 100 is complete control) (kochia; Postemergence, 500 g ai/ha) | Plant response rating, Kochia (kochia; preemergence, 500 g ai/ha) | Plant response rating, Ducksalad (ducksalad) | other results
O=C1NCC(c2cccc(OC(F)(F)C(F)F)c2)C1C(=O)Nc1cccc(F)c1F (racemic) [Compound 123] | 40 | 40 | 50 | 60 | 60 | 70 | 50 | 90 | 80 | 90 | 90 | 80 | 70 | 90 | 0 | 80 | 60 | 70 | 90 | 100 | Plant response rating, Corn (corn; [6]): 80; Plant response rating, Barnyardgrass (barnyardgrass [1]; [9]): 80; Plant response rating, Sedge, Umbrella (sedge, umbrella): 0; Plant response rating, Wheat (wheat): 50; Wheat plant response rating (0 to 100 scale, 0 is no effect, 100 is complete control) (wheat): 60; Plant response rating, Blackgrass (blackgrass; [5]): 60; Plant response rating, Blackgrass (blackgrass; [6]): 70; Plant response rating, Barnyardgrass (barnyardgrass [2]): 60; Plant response rating, Pigweed (pigweed; [3]): 70; Plant response rating, Pigweed (pigweed; [4]): 80; Pigweed plant response rating (0 to 100 scale, 0 is no effect, 100 is complete control) (pigweed; Postemergence, 500 g ai/ha): 90; Plant response rating, Pigweed (pigweed; preemergence, 500 g ai/ha): 80; Plant response rating, Ragweed (ragweed; [3]): 70; Plant response rating, Ragweed (ragweed; [4]): 50; Ragweed plant response rating (0 to 100 scale, 0 is no effect, 100 is complete control) (ragweed; Postemergence, 500 g ai/ha): 70; Plant response rating, Ragweed (ragweed; preemergence, 500 g ai/ha): 80
O=C1NCC(c2cccc(OC(F)(F)C(F)F)c2)C1C(=O)Nc1ccccc1Cl (racemic) [Compound 125] | 0 | 0 | 0 | 20 | 0 | 60 | 0 | 80 | 70 | 80 | 90 | 80 | 60 | 90 | 0 | 30 | 20 | 60 | 70 | 85 | Plant response rating, Corn (corn; [6]): 0; Plant response rating, Barnyardgrass (barnyardgrass [1]; [9]): 70; Plant response rating, Sedge, Umbrella (sedge, umbrella): 0; Plant response rating, Wheat (wheat): 0; Wheat plant response rating (0 to 100 scale, 0 is no effect, 100 is complete control) (wheat): 0; Plant response rating, Blackgrass (blackgrass; [5]): 20; Plant response rating, Blackgrass (blackgrass; [6]): 50; Plant response rating, Barnyardgrass (barnyardgrass [2]): 30; Plant response rating, Pigweed (pigweed; [3]): 0; Plant response rating, Pigweed (pigweed; [4]): 0; Pigweed plant response rating (0 to 100 scale, 0 is no effect, 100 is complete control) (pigweed; Postemergence, 500 g ai/ha): 20; Plant response rating, Pigweed (pigweed; preemergence, 500 g ai/ha): 0; Plant response rating, Ragweed (ragweed; [3]): 0; Plant response rating, Ragweed (ragweed; [4]): 0; Ragweed plant response rating (0 to 100 scale, 0 is no effect, 100 is complete control) (ragweed; Postemergence, 500 g ai/ha): 0; Plant response rating, Ragweed (ragweed; preemergence, 500 g ai/ha): 0
COc1cc(C2CNC(=O)C2C(=O)Nc2ccc(F)cc2F)ccc1F (racemic) [Compound 131] | 0 | 0 | 0 | 0 | 0 | 0 | 0 | 50 | 50 | 50 | 60 | 50 | 50 | 60 | 0 | 0 | 0 | 0 | 0 | 70 | Corn plant response rating (0 to 100 scale, 0 is no effect, 100 is complete control) (corn; 500 g ai/ha): 0; Barnyardgrass plant response rating (0 to 100 scale, 0 is no effect, 100 is complete control) (barnyardgrass [1]; Postemergence, 500 g ai/ha): 60; Plant response rating, Sedge, Umbrella (sedge, umbrella): 30; Plant response rating, Wheat (wheat): 0; Wheat plant response rating (0 to 100 scale, 0 is no effect, 100 is complete control) (wheat): 0; Plant response rating, Blackgrass (blackgrass; [5]): 0; Blackgrass plant response rating (0 to 100 scale, 0 is no effect, 100 is complete control) (blackgrass; 500 g ai/ha): 0; Plant response rating, Barnyardgrass (barnyardgrass [2]): 40; Plant response rating, Pigweed (pigweed; [3]): 0; Plant response rating, Pigweed (pigweed; [4]): 0; Pigweed plant response rating (0 to 100 scale, 0 is no effect, 100 is complete control) (pigweed; Postemergence, 500 g ai/ha): 0; Plant response rating, Pigweed (pigweed; preemergence, 500 g ai/ha): 0; Plant response rating, Ragweed (ragweed; [3]): 0; Plant response rating, Ragweed (ragweed; [4]): 0; Ragweed plant response rating (0 to 100 scale, 0 is no effect, 100 is complete control) (ragweed; Postemergence, 500 g ai/ha): 0; Plant response rating, Ragweed (ragweed; preemergence, 500 g ai/ha): 0
